Converted amounts (≈) assume the structure as drawn.
Key:
CRLF2 = biological target: T1, CRLF2 (Homo sapiens, UniProt Q9HC73); assay: Flow cytometry binding of M13 phage displaying peptide to BaF3-CRLF2 cells; settings: for binding to CRLF2 (peptides pulled from enriched phage population): phage display selection on BaF3 cells expressing CRLF2
T1 construct: expressed in transfected cells
T1 sequence (Q9HC73 23-371): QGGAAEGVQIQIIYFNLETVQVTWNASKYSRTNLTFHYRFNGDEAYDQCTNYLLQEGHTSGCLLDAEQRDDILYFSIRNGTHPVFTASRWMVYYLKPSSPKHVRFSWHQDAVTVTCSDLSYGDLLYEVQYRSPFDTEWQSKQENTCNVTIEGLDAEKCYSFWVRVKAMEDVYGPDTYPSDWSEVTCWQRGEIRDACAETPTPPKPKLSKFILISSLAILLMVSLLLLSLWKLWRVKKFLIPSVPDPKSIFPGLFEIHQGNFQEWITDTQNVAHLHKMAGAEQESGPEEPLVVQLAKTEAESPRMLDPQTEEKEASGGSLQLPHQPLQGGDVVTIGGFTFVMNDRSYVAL
Protocol: (§1) Flow cytometry is used to evaluate binding of individual phage clones within consensus sequences. In this case, a saturable binding curve can be constructed, allowing for the determination of the dissociation constant (Kd) of phage displaying potentially specific peptides that bind cells with high levels of CRLF2 expression but not parental cell lines with minimal expression.
The selections were carried out on BaF3 cells that had been induced to create the cell receptor CRLF2 and express it on their surface. Negative selections were carried out on the parental cell line (no CRLF2) in order to assure that the ligand identified was in fact binding to the desired target and not to other features on the surface of the cells.
(§2) Affinity selections on cellular targets are complicated by the heterogeneity of surface protein expression on mammalian cells, which frequently results in a large number of peptides that bind unsuitable targets. A major goal of the work we propose is to create an efficient selection/counter-selection scheme. To illustrate our strategy, the gene encoding human CRLF2 was introduced into BaF3 cells (a murine IL3-dependent pro-B cell line) and the protein's abundant surface expression was confirmed by FACS (as shown in Project 2). The resulting BaF3-CRLF2 cells, together with the BaF3 parental line (which specifically lacks CRLF2), served as a matched selection/counter-selection pair and provided a convenient means of discarding affinity selectants that bind the many non-CRLF2 receptors inevitably encountered on the BaF3 surface.
(§3) In this case, a saturable binding curve can be constructed, allowing for the determination of the disassociation constant (Kd) of phage displaying potential specific peptides that bind cells with high levels of CRLF2 expression but not parental cell lines with minimal expression. Data shown for the MTAAPVH phage clone on BaF3/CRLF2 (A) and parental BaF3 cells. (B) Binding curves were constructed by titrating the amount of phage with constant cell concentrations in order to quantitatively describe binding. Non-specific binding was determined by incubating wild-type phage with the same cell lines.
CRLF2 may be targeted using its natural ligand TSLP or with peptides that are specifically directed towards CRLF2; both approaches are being developed. […] Peptides selected by affinity for Ba-F3-CRLF2 cells were counter-selected against parental Ba-F3 cells to eliminate any phage binding receptors common to both cell types. We find that a matched selection/counter-selection pair greatly increases the specificity of the affinity selection process. It is important to note that in the VLP screening method, each VLP encapsidates its own mRNA. This means that the nucleotide sequences encoding any particular VLP and its guest peptide or protein are contained within the particle itself and can be recovered by reverse transcription and polymerase chain reaction.

[1] = test system: MHH CALL 4, Mutz-5 and BaF3/CRLF-2 cells; assay: Internalization of CRLF-2-targeted protocells by target cells; format: cell-based, human; settings: peptide on protocell surface
Protocol: The upper-left portion of FIG. 7 depicts the internalization efficacy of CRLF-2-targeted protocells in the absence of the R8 peptide. The upper right portion of FIG. 7 presents images of CRLF-2-positive (MHH CALL 4) and CRLF-2-negative (MOLT 4) cells exposed to targeted protocells for 37° C. for two hours. N.D.=not detectable; bilayer composition=DOIDA in DSPC with 5 wt % DSPE; approximate peptide density=10 targeting peptides/protocell and ˜500 H5WYG peptides/protocell. Targeted protocells can become internalized within target cells (MHH CALL 4, Mutz-5 and BaF3/CRLF-2) over time. However, overall internalization efficiency is only ˜20%, which could lead to non-specific cytotoxicity. The lower-left portion of FIG. 7 depicts the internalization efficacy of CRLF-2-targeted protocells in the presence of the R8 peptide. The lower right portion of FIG. 7 presents images of CRLF-2-positive (MHH CALL 4) and CRLF-2-negative (MOLT 4) cells exposed to targeted protocells for 37° C. for two hours. N.D.=not detectable; bilayer composition=DOIDA in DSPC with 5 wt % DSPE; approximate peptide density=10 targeting peptides/protocell and −500 H5WYG peptides/protocell.
The upper-left portion of FIG. 8 depicts internalization kinetics for CRLF-2-targeted protocells in the absence and presence of the R8 peptide. […]

[2] = biological target: human CRLF2 expressed on the cell surface (BaF3-CRLF2, REH-CRLF2, MHH CALL 4, MUTZ5 cells) (human) (UniProt Q9HC73); assay: protocell binding to BaF3-CRLF2, MUTZ5 and MHHCALL4 cells, against untargeted protocells, the parental BAF3 line or CRLF2(-) NALM6 cells (FIG. 19, 20)
BaF3 parental cells = assay: Flow cytometry binding of M13 phage displaying peptide to BaF3 parental cells; parameters: species or system murine
Excerpt: as §1, §2, §3
CRLF2 may be targeted using its natural ligand TSLP or with peptides that are specifically directed towards CRLF2; both approaches are being developed. […]

Hep3B = assay: Cytotoxicity of DOX, free or delivered in protocells or liposomes, in Hep3B; format: cell-based; settings: as DOX
Excerpt: For toxicology studies there are two major issues which must be addressed: silica loading in the tissues, derived from the mesoporous silica core of the protocell, and non-targeted or “off target” delivery of the therapeutic cargos to normal tissues. […] Nevertheless, we will systematically evaluate all major organs and tissues in treated mice for silica deposition and cellular damage after treatment with loaded and unloaded protocells. […] As a benchmark, we compared oxidative stress and cell viability of neutral, positively and negatively-charged targeted protocells with corresponding liposomes and other control particles at 10^9 particles/mL corresponding to ˜1-2 μg/mL (FIG. 24). […] In preliminary studies (FIG. 25), we also compared the IgG response of C57Bl/6 mice immunized twice with 10 μg doses of targeted and SP94-targeted protocells to that of virus-like particles (VLPs) conjugated to the same concentration of targeting peptide (MS2 SP94). […] When considering therapeutically administered doses, for the hepatocellular carcinoma cell line Hep3B, the LC50 and LC90 values of free DOX are 150 and 500 ng/mL, respectively. […] As discussed above, Si loading will be assessed by ICP-MS. […]

[3] = biological target: T2, human CRLF2 expressed on the cell surface (BaF3-CRLF2, REH-CRLF2, MHH CALL 4, MUTZ5 cells) (human), Q9HC73; assay: flow cytometry, M13 phage on BaF3-CRLF2 cells (FIG. 3)
T2 chain: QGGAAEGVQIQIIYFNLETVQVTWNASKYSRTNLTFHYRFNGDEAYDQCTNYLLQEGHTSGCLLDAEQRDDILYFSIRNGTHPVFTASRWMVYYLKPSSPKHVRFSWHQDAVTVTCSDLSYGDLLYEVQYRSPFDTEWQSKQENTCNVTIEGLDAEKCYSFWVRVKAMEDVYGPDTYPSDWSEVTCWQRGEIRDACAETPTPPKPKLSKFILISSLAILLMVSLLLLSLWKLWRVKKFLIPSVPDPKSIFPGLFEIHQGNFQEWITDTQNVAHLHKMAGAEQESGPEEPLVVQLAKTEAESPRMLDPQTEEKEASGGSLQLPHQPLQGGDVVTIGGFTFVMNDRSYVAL

[4] = biological target: T2, human CRLF2 expressed on the cell …; assay: binding of M13 phage to BaF3-CRLF2 cells (FIG. 18)
[5] = biological target: T3, human CRLF2 expressed on the cell surface (BaF3-CRLF2, REH-CRLF2, MHH CALL 4, MUTZ5 cells) (human, UniProt Q9HC73 23-371); assay: flow cytometry, Alexa-fluor-647 labeled particles incubated 1 h with BaF3/CRLF-2 cells
T3 construct: whole, on cells; Parental BaF3 / REH cells lack CRLF2 and served as negative controls; also called TSLP receptor; TSLPR
T3 sequence (looked up): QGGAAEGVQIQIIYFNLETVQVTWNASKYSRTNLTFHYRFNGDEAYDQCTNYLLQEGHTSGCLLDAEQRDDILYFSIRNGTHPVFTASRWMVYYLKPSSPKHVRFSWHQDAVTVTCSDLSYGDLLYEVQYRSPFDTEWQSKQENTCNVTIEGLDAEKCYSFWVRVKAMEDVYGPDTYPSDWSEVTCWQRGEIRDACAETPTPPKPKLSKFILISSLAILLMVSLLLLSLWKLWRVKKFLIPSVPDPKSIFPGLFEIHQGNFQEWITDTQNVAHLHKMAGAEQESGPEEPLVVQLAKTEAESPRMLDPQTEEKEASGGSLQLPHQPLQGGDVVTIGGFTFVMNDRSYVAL

For FSYLPSH, the “binding to CRLF2 (peptides pulled from enriched phage population)” value (“binding to CRLF2” below) (CRLF2) was “exhibited binding to CRLF2”.

For “RRRRRRRR [R8, 8 mer polyarginine that promotes internalization, reference compound]”, the “promotion of internalization of protocells by CRLF2-positive cells” value [1] was “promoted this selective internalization in a density-dependent manner”.

“CRLF2-targeted protocells conjugated with the CRLF2-targeting peptide TDAHASV” was tested, and the fold higher affinity [2] was 1000 fold.

MTAAPVH was tested, and the “Specific binding of phage clone to the parental cells” value (BaF3 parental cells; parental BaF3) was “extremely minimal”, the “promotion of internalization of protocells by CRLF2-positive cells” value [1] was “does not promote rapid internalization” and the “Specific binding of phage clone to CRLF2 positive cells” value (CRLF2; BaF3/CRLF2, non-specific binding from wild-type phage) was “significant”. The “binding to CRLF2” value (CRLF2) was “best binder”.

`COc1cccc2c1C(=O)c1c(O)c3c(c(O)c1C2=O)C[C@@](O)(C(=O)CO)C[C@@H]3O[C@H]1C[C@H](N)[C@H](O)[C@H](C)O1` [free DOX, doxorubicin] was tested, and the LC50 (Hep3B) was 0.15 µg/mL (≈ 0.276 µM) and the LC90 (Hep3B) was 0.5 µg/mL (≈ 0.92 µM).

For TDAHASV [peptide ligand to CRLF2], the “binding to the BaF3 parent” value (BaF3 parental cells; peptide displayed on M13 phage) was “not showing significant binding”, the Kd (BaF3 parental cells; peptide displayed on M13 phage, read-out: Kd for the BaF3 parental line) was less than 3000 nM and the Kd (CRLF2; peptide displayed on M13 phage, BaF3-CRLF2 cells) was 27.9 nM. For the same molecule, the “binding to CRLF2” value (CRLF2) was “exhibited binding to CRLF2”.

B1: M13 filamentous phage displaying the CRLF2-binding peptide TDAHASV (peptide)
chain: TDAHASV
modifications: not checked
B1 gave a Kd [3] of 3 nM and a Kd [4] of 27.9 nM.

B2: VLPs not displaying any additional peptides (other)
chain: ASNFTQFVLVDNGGTGDVTVAPSNFANGVAEWISSNSRSQAYKVTCSVRQSSAQNRKYTIKVEVPKVATQTVGGVELPVAAWRSYLNMELTIPIFATNSDCELIVKAMQGLLKDGNPIPSAIAANSGIY
notes: Control particle; also called nontargeted VLPs; particles not displaying any additional peptides
B2: no binding [5].

Source: patent publication US20150010475A1, “CRLF-2 BINDING PEPTIDES, PROTOCELLS AND VIRAL-LIKE PARTICLES USEFUL IN THE TREATMENT OF CANCER, INCLUDING ACUTE LYMPHOBLASTIC LEUKEMIA (ALL)” (STC. UNM, priority 2011, published 2015)
